Read-outs that look alike come from different tables or passages of the source.
What was measured:
[1] = system: maximal electroshock seizure (MES); test: Maximal electroshock seizure test (MES), rats, oral; conditions: for responders at 30 mg/kg / ED50: Rattus norvegicus, po; for responders at 30 mg/kg: read-out: Anti-MES activity (number of animals protected/number of animals tested); for ED50: read-out: MES ED50, rats dosed orally; for ED50 / MES ED50: interval in parentheses = 95% confidence interval; for MES ED50: rats dosed orally;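 for all read-outs here: adult male Sprague-Dawley rats received test compounds by mouth as a suspension in 0.5% methylcellulose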
Method: (§1) The tested compounds were suspended in 0.5% methylcellulose and administered (a) intraperitioneally (ip) to adult male CF no. 1 albino mice (18-25 g) in volume of 0.01 mL/g body weight and (b) orally to adult male Sprague-Dawley albino rats (100-150 g) in volume of 0.04 mL per 10 g of body weight.
(§2) The TD50 was determined by varying the dose of the tested compounds until four points were established between the dose level that induced no signs of minimal motor impairment in any of the animals and the dose at which all the animals were considered impaired. […] The PIs were calculated by dividing the TD50 by the ED50.

[2] = system: subcutaneous metrazol (pentylenetetrazol) seizure; test: Subcutaneous metrazol seizure threshold test (scMet), mice, intraperitoneal; type: in vivo; conditions: ip;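 note: adult male CF no. 1 albino mice weighing 18-25 g, dosed intraperitoneally with compounds suspended in 0.5% methylcellulose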
[3] = system: subcutaneous metrazol (pentylenetetrazol) seizure; test: animal or person; conditions: Rattus norvegicus, po, read-out: scMet ED50
Method: (§3) The evaluation of the anticonvulsant activity in the maximal electroshock seizure test (MES) and subcutaneous metrazol seizure threshold test (scMet) and the determination of neurotoxicity in the rotorod test, positional sense test, and others were performed according to the protocols described in White, H. S., Woodhead J. H., Wilcox K. S., Stables J. P., Kupferberg H. J., Wolf H. H., Discovery and Preclinical Development of Antiepileptic Drugs; 5th ed.; Lippincott Williams &Wilkins: New york, 2002; 36-48.
(§4) The tested compounds were suspended in 0.5% methylcellulose and administered (a) intraperitioneally (ip) to adult male CF no. 1 albino mice (18-25 g) in volume of 0.01 mL/g body weight and (b) orally to adult male Sprague-Dawley albino rats (100-150 g) in volume of 0.04 mL per 10 g of body weight. The pentylenetetrazol solution at convulsing dose was prepared by sufficient dissolution of pentylenetetrazol in 0.9% saline to make 0.85% solution for administration to mice and a 2.82% solution for administration to rats.
as §2

in vivo = conditions: male, Sprague-Dawley, rat, po
Method: as §1, §2

[4] = system: subcutaneous metrazol (pentylenetetrazol) seizure; conditions: for PI, protective index (PI = TD50/ED50) in the scMet test: male, Sprague-Dawley, rat, in vivo, po
Method: as §3, §4, §2

[5] = system: maximal electroshock seizure (MES); test: Maximal electroshock seizure test (MES), mice, intraperitoneal; type: in vivo; conditions: ip;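 note: adult male CF no. 1 albino mice of 18–25 g, given compound intraperitoneally as a 0.5% methylcellulose suspension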
[6] = system: maximal electroshock seizure (MES); conditions: male, Sprague-Dawley, rat, in vivo, po
Method: as §1, §2

[7] = 30 mg/kg, 0.5 h after administration
[8] = 30 mg/kg, 4 h after administration
[9] = 100 mg/kg, 0.5 h after administration
[10] = 100 mg/kg, 4 h after administration
[11] = 300 mg/kg, 0.5 h after administration
[12] = 300 mg/kg, 4 h after administration

| Compound | responders at 30 mg/kg ([1]; 0.5 h) | responders at 30 mg/kg ([1]; 1 h) | responders at 30 mg/kg ([1]; 2 h) | responders at 30 mg/kg ([1]; 4 h) | responders at 30 mg/kg ([1]; […]) | ED50 [1] | scMet (number of animals protected/number of animals tested) [2, 7] | scMet (number of animals protected/number of animals tested) [2, 8] | scMet (number of animals protected/number of animals tested) [2, 9] | scMet (number of animals protected/number of animals tested) [2, 10] | scMet (number of animals protected/number of animals tested) [2, 11] | scMet (number of animals protected/number of animals tested) [2, 12] | TD50 (in vivo) | MES (number of animals protected/number of animals tested) [5, 7] | MES (number of animals protected/number of animals tested) [5, 8] | MES (number of animals protected/number of animals tested) [5, 9] | MES (number of animals protected/number of animals tested) [5, 10] | MES (number of animals protected/number of animals tested) [5, 11] | MES (number of animals protected/number of animals tested) [5, 12] | melting point | also measured |
| --- | --- | --- | --- | --- | --- | --- | --- | --- | --- | --- | --- | --- | --- | --- | --- | --- | --- | --- | --- | --- | --- |
| NS(=O)(=O)c1ccc(NC(=O)Cc2ccccc2)cc1 [Compound 30, 2-Phenyl-N-(4-sulfamoyl-phenyl)-acetamide] | 0% | 100% | 75% | 100% | 0% | 16.1 mg/kg | 0/1 0/1 0/1 | 0/1 0/1 0/1 | 0/1 0/1 0/1 | 0/1 0/1 0/1 | 0/1 0/1 0/1 | 0/1 0/1 0/1 | > 500 mg/kg | 0/1 | 0/1 | 3/3 | 3/3 | 1/1 | 1/1 | – | ED50 [3]: > 250 mg/kg; PI, protective index (PI = TD50/ED50) in the scMet test [4]: >2; PI, protective index (PI = TD50/ED50) in the MES test [6]: >31.0 |
| CCCC(C(=O)Nc1ccc(S(N)(=O)=O)cc1)C(C)CC (centres unmarked) [Compound 21, 2-propyl-3-Methyl-N-(4-sulfamoyl-phenyl)-pentanamide] | 25% | 25% | 50% | 25% | 0% | – | 0/1 0/1 0/1 | 0/1 0/1 0/1 | 0/1 0/1 0/1 | 0/1 0/1 0/1 | 0/1 0/1 0/1 | 0/1 0/1 0/1 | – | 0/1 | 0/1 | 1/3 | 2/3 | 1/1 | 1/1 | 223 to 226 °C | – |
| CC(C)(C)C(=O)Nc1ccc(S(N)(=O)=O)cc1 [Compound 9, 2,2-Dimethyl-N-(4-sulfamoyl-phenyl)-propionamide] | 0% | 75% | 50% | 100% | 0% | 42 mg/kg | 0/1 0/1 0/1 | 0/1 0/1 0/1 | 0/1 0/1 0/1 | 0/1 0/1 0/1 | 0/1 0/1 0/1 | 0/1 0/1 0/1 | > 500 mg/kg | 0/1 | 0/1 | 1/3 | 2/3 | 1/1 | 1/1 | 228 to 229 °C | MES ED50 [1]: 42.2 (22.9-86.4) mg/kg; PI, protective index (PI = TD50/ED50) in the MES test [6]: >11.8 |
| CCC(CC)C(=O)NCc1ccc(S(N)(=O)=O)cc1 [Compound 28, 2-Ethyl-N-(4-sulfamoyl-benzyl)-butyramide] | 25% | 50% | 0% | 0% | 25% | 24.7 mg/kg | 0/1 0/1 0/1 | 0/1 0/1 0/1 | 0/1 0/1 0/1 | 0/1 0/1 0/1 | 0/1 0/1 0/1 | 0/1 0/1 0/1 | > 500 mg/kg | 0/1 | 0/1 | 3/3 | 1/3 | 1/1 | 1/1 | 148 to 150 °C | ED50 [3]: > 250 mg/kg; PI, protective index (PI = TD50/ED50) in the scMet test [4]: >2 |
| CCC(C)C(CC)C(=O)Nc1ccc(S(N)(=O)=O)cc1 (centres unmarked) [Compound 19, 2-Ethyl-3-methyl-N-(4-sulfamoyl-phenyl)-pentanamide] | 0% | 75% | 100% | 75% | 0% | – | 0/1 0/1 0/1 | 0/1 0/1 0/1 | 0/1 0/1 0/1 | 0/1 0/1 0/1 | 0/1 0/1 0/1 | 0/1 0/1 0/1 | – | 0/1 | 0/1 | 3/7 | 3/3 | 4/5 | 1/1 | 203 to 205 °C | – |
| CCCC(C)C(=O)Nc1ccc(S(N)(=O)=O)cc1 (centres unmarked) [Compound 16, 2-Methyl-N-(4-sulfamoyl-phenyl)-pentanamide] | 25% | 100% | 100% | 100% | 25% | ~10 mg/kg | 0/1 0/1 0/1 | 0/1 0/1 0/1 | 0/1 0/1 0/1 | 0/1 0/1 0/1 | 0/1 0/1 0/1 | 0/1 0/1 0/1 | > 500 mg/kg | 0/1 | 0/1 | 0/3 | 2/3 | 0/1 | 1/1 | – | ED50 [3]: > 250 mg/kg; PI, protective index (PI = TD50/ED50) in the scMet test [4]: >2; PI, protective index (PI = TD50/ED50) in the MES test [6]: >46.3 |
| CCC(CC)C(=O)Nc1ccc(S(N)(=O)=O)cc1 [Compound 11, 2-Ethyl-N-(4-sulfamoyl-phenyl)-butyramide] | 75% | 100% | 100% | 100% | 25% | ~10 mg/kg | 0/1 0/1 0/1 | 0/1 0/1 0/1 | 0/1 0/1 0/1 | 0/1 0/1 0/1 | 0/1 0/1 0/1 | 0/1 0/1 0/1 | > 500 mg/kg | 1/1 | 1/1 | 3/3 | 3/3 | 1/1 | 1/1 | – | anticonvulsant potency relative to valproic acid (times greater) ([1]; rat-MES, versus VPA): 49 times; rat-MES PI relative to VPA (times higher) ([1]; rat-MES, versus VPA): about 31 times; MES ED50 [1]: 9.9 (6.5-14.5) mg/kg; ED50 [3]: > 250 mg/kg; activity in the scMet test ([4]; doses up to 250 mg/kg): inactive; PI, protective index (PI = TD50/ED50) in the scMet test [4]: >2 |
| CC(C)(C)CC(=O)NCc1ccc(S(N)(=O)=O)cc1 [Compound 27, 3,3-Dimethyl-N-(4-sulfamoyl-benzyl)-butyramide] | 0% | 25% | 50% | 50% | 0% | – | 0/1 0/1 0/1 | 0/1 0/1 0/1 | 0/1 0/1 0/1 | 0/1 0/1 0/1 | 0/1 0/1 0/1 | 0/1 0/1 0/1 | – | 0/1 | 0/1 | 0/3 | 1/3 | 0/1 | 1/1 | 205 to 207 °C | – |
